pIC50: −log10 of the molar value. Structures can show the parent of a compound that is named as a salt.
Molecular target: α7-subtype of nicotinic receptors (Rattus norvegicus, UniProt Q05941)
Assay: biochemical
Format: binding

Chain of α7-subtype of nicotinic receptors (Q05941 23-502): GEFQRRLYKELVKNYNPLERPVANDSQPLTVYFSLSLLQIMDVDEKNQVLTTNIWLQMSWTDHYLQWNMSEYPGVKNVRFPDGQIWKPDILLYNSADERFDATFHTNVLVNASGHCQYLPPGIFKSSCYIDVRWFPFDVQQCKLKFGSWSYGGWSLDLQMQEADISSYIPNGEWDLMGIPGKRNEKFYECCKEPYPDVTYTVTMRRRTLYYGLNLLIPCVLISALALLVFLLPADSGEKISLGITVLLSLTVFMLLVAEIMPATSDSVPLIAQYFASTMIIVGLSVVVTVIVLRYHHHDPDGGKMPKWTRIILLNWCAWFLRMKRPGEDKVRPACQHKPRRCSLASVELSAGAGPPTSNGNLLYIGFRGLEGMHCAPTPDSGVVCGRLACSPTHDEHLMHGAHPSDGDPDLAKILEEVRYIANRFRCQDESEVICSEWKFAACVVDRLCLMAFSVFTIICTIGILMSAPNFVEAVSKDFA

c1ccc2c(c1)CC(c1nnc(N3CCN4CCC3CC4)o1)C2 [Compound 1, 4-(5-Indan-2-yl-[1,3,4]oxadiazol-2-yl)-1,4-diaza-bicyclo[3.2.2]nonane fumaric acid salt] and c1ccc2c(c1)OC(c1nnc(N3CCN4CCC3CC4)o1)O2 [Compound 2, 4-(5-Benzo[1,3]-dioxol-2-yl-[1,3,4]oxadiazol-2-yl)-1,4-diaza-bicyclo[3.2.2]nonane fumaric acid salt] are within 0.2 log units of each other in pIC50: 6.21 for the first, 6.12 for the second.

Molecule c1ccc2c(c1)OCC(c1nnc(N3CCN4CCC3CC4)o1)O2 (stereo not drawn) [Compound 3, 4-[5-(2,3-Dihydro-benzo[1,4]dioxin-2-yl)-[1,3,4]oxadiazol-2-yl]-1,4-diaza-bicyclo[3.2.2]nonane fumaric acid salt] has a pIC50 of 5.74.
